How the values were obtained:
[1] = anti-ulcer activity used as index in fractionation; conditions: single (peak) component from HPLC fractionation of cinnamon extract
Method: After washing with water, the resin was eluted using a 40 to 80% methanol aqueous solution as an eluent; the eluted fraction thus obtained was concentrated under reduced pressure and freeze dried to afford 148 g of a crude powder.
50 kg of cinnamon was treated with hot water at 60° to 100° C. for 1 to 2 hours, and the resultant extract was adsorbed onto 100 to 140 liters of the Amberlite XAD-2 resin. This resin was washed with water, then eluted using a 40 to 80% aqueous methanol solution as an eluent; the eluted fraction thus obtained was concentrated under reduced pressure and freeze dried to obtain 148 g of a crude powder.
200 kg of cinammon was treated with hot water at 60° to 100° C. for 1 to 2 hours, and the resultant extract was adsorbed onto 400 to 500 liters of the Amberlite XAD-2 resin. This resin was washed with water, then eluted with a 40 to 80% aqueous methanol solution as an eluent, the eluted fraction thus obtained was concentrated under reduced pressure and freeze-dried to obtain 590 g of a crude powder.

Ethanol Induced Ulcer = assay: Ethanol Induced Ulcer; format: in vivo, Wister strain male rats; parameters: Rate of Inhibition: unit not given here; conditions: 30 min before ethanol; for Ulcer Index: mean ± standard error (n=8)
Method: Wister strain male rats (weighing 160-180 g) were fasted for one day and intragastrically administed with 50% (v/v) ethanol at a rate of 1 ml per rat. The test drug was intragastirically administered through an oral Zonde (probe) 30 minutes before administration of ethanol. One hour after administration of ethanol, the rats were poisoned to death by inhalation of chloroform, each stomach was excised, the major axis of hemorrhagic erosion on the stomach part was measured, and the total was made an ulcer index.
(§1) Each numeral in the table indicates the mean ± standard error (n=8)
(§2) All the test drugs (compounds of this invention) were intragastrically administered by an oral Zonde (probe).

Stress Ulcer = assay: Stress Ulcer; format: in vivo, Wister strain male rats; conditions: immediately before stress; for Ulcer Index: mean ± standard error (n=8)
Method: Wister strain male rats (weighing 230-250 g) were fasted for 2 days, then, while confined in a Tokyo University Pharmaceutics Laboratory model cage, they were immersed up to the xiphocosta and pulled up 6 hours later, to determine the ulcer index. That is, the rats were clubbed to death, the major axis of hemorrhagic erosion was measured, and the total was made the ulcer index. the test drug was intragastrically administered through an oral Zonde (probe) immediately before the loading of stress.
as §1, §2

Serotonin Induced Ulcer = assay: Serotonin Induced Ulcer; format: in vivo, Wister strain male rats; parameters: unit not given here; conditions: 30 min before serotonin; for Ulcer Index: mean ± standard error (n=8)
Method: Wister strain male rats (weighing 160 to 180 g) were used after one day's fasting. Serotonin creatinine sulfate (30 mg/ml) was subcutaneously administered to the rats on the back at a rate of 1 ml per kg of the body weight. The stomach was excised 5 hours after administration of serotonin, and the total area of hemorrhagic erosion was measured as an ulcer index. The test drug was intragastrically administered to the rats through an oral Zonde (probe) 30 minutes before administration of serotonin.
as §1, §2

CC(=O)C=C=C1C(C)(C)CC(O[C@@H]2O[C@H](CO[C@@H]3OC[C@](O)(CO)[C@H]3O)[C@@H](O)[C@H](O)[C@H]2O)CC1(C)O (stereo partly drawn) [(III-1)]
anti-ulcer activity among fractions [1]: manifesting the activity most strongly
Rate of Inhibition (Ethanol Induced Ulcer; 0.075 μg/kg intragastric): 51.6
Ulcer Index (Ethanol Induced Ulcer; 0.075 μg/kg intragastric): 24.7 ± 10.6
Rate of Inhibition (Ethanol Induced Ulcer; 0.15 μg/kg intragastric): 56.5
Ulcer Index (Ethanol Induced Ulcer; 0.15 μg/kg intragastric): 22.2 ± 8.1
Rate of Inhibition (Stress Ulcer; 0.075 μg/kg intragastric): 41.3
Ulcer Index (Stress Ulcer; 0.075 μg/kg intragastric): 16.6 ± 3.2
Rate of Inhibition (Stress Ulcer; 0.15 μg/kg intragastric): 66.8
Ulcer Index (Stress Ulcer; 0.15 μg/kg intragastric): 9.4 ± 2.3
Rate of Inhibition (Serotonin Induced Ulcer; 0.075 μg/kg intragastric): 2.9
Ulcer Index (Serotonin Induced Ulcer; 0.075 μg/kg intragastric): 17.0 ± 3.1
Rate of Inhibition (Serotonin Induced Ulcer; 0.15 μg/kg intragastric): 75.4
Ulcer Index (Serotonin Induced Ulcer; 0.15 μg/kg intragastric): 4.3 ± 1.1

CC1=C(/C=C/C(CO)CO)C(C)(CO[C@@H]2O[C@H](CO)[C@@H](O)[C@H](O)[C@H]2O)CCC1=O (stereo partly drawn) [(IV-1), 2,4-dimethyl-3-(4-hydroxy-3-hydroxymethyl-1-butenyl)-4-(β-D-glucopyranosyl)oxymethyl-2-cyclohexen-1-one]
anti-ulcer activity among fractions [1]: manifesting the activity most strongly
Rate of Inhibition (Serotonin Induced Ulcer; 0.1 μg/kg intragastric): 47.0
Ulcer Index (Serotonin Induced Ulcer; 0.1 μg/kg intragastric): 7.1 ± 3.4
Rate of Inhibition (Serotonin Induced Ulcer; 1 μg/kg intragastric): 51.5
Ulcer Index (Serotonin Induced Ulcer; 1 μg/kg intragastric): 6.5 ± 2.5

COc1cc(O[C@@H]2O[C@H](CO[C@@H]3OC[C@](O)(CO)[C@H]3O)[C@@H](O)[C@H](O)[C@H]2O)cc(OC)c1OC [(II-1), 3,4,5-trimethoxyphenol-β-D-apiofranosyl-(1→6)-β-D-glucopyranoside]
anti-ulcer activity among fractions [1]: manifesting the activity most strongly
Rate of Inhibition (Ethanol Induced Ulcer; 0.15 μg/kg intragastric): 11.1
Ulcer Index (Ethanol Induced Ulcer; 0.15 μg/kg intragastric): 45.3 ± 14.0
Rate of Inhibition (Ethanol Induced Ulcer; 0.30 μg/kg intragastric): 47.1
Ulcer Index (Ethanol Induced Ulcer; 0.30 μg/kg intragastric): 27.0 ± 7.4
Rate of Inhibition (Stress Ulcer; 0.15 μg/kg intragastric): 23.7
Ulcer Index (Stress Ulcer; 0.15 μg/kg intragastric): 21.6 ± 5.8
Rate of Inhibition (Stress Ulcer; 0.30 μg/kg intragastric): 58.5
Ulcer Index (Stress Ulcer; 0.30 μg/kg intragastric): 11.7 ± 3.0
Rate of Inhibition (Serotonin Induced Ulcer; 0.15 μg/kg intragastric): 57.1
Ulcer Index (Serotonin Induced Ulcer; 0.15 μg/kg intragastric): 7.5 ± 2.3
Rate of Inhibition (Serotonin Induced Ulcer; 0.30 μg/kg intragastric): 70.9
Ulcer Index (Serotonin Induced Ulcer; 0.30 μg/kg intragastric): 5.1 ± 1.9

COc1cc(O)cc(OC)c1OC [(II-2), 3,4,5-trimethoxyphenol]
Rate of Inhibition (Serotonin Induced Ulcer; 0.05 μg/kg intragastric): 26.7
Ulcer Index (Serotonin Induced Ulcer; 0.05 μg/kg intragastric): 15.1 ± 4.6
Rate of Inhibition (Serotonin Induced Ulcer; 0.15 μg/kg intragastric): 45.6
Ulcer Index (Serotonin Induced Ulcer; 0.15 μg/kg intragastric): 11.2 ± 2.4

CC1=C(/C=C/C(CO)CO)C(C)(CO)CCC1=O (stereo not drawn) [(IV-2)]
Rate of Inhibition (Serotonin Induced Ulcer; 0.06 μg/kg intragastric): 65.7
Ulcer Index (Serotonin Induced Ulcer; 0.06 μg/kg intragastric): 4.6 ± 1.2
Rate of Inhibition (Serotonin Induced Ulcer; 6 μg/kg intragastric): 76.9
Ulcer Index (Serotonin Induced Ulcer; 6 μg/kg intragastric): 3.1 ± 1.2

From US4888417A, “Therapeutic and prophylactic agents for peptic ulcer” (Green Cross Corporation, priority 1985, dated 1989)
